These results are taken from patent US5756423A, “Method of controlling plants by inhibition of farnesyl pyrophosphate synthase” (Zeneca Limited, priority 1997, dated 1998).

Experiment [1] deals with wild oat (Avena fatua) (AVEFA). The experiment in a line: post-emergent herbicidal test, wild oat. Type of experiment: in vivo. As to conditions: Avena fatua, post-emergence, read-out: AVEFA percent control. An excerpt: (§1) Seeds of several different weed species were planted in sandy loam soil containing only trace organic matter. Propagules were sown in individuals rows using one species per row across the width of an aluminum flat (19.5×9.5×6 cm). The grass weeds planted were green foxtail (Setaria viridis) ("SETVI"), wild oat (Avena fatua) ("AVEFA"), barnyard grass (Enchinochloa crusgalli) ("ECHCG"). Broadleaf weeds utilized were wild mustard (Brassica kaber), also known as Sinapis arvensis, ("SINAR"), velvetleaf (Abutilon theophrasti) ("ABUTH") and morningglory (Ipomoea spp.) ("IPOSS"). Additionally, yellow nutsedge (Cyperus esculentus) ("CYPES"), nutlets were sown. Seeding depths ranged from 1.0 to 1.5 cm and plant densities ranged from 3 to 25 plants per row depending on individual plant species.
(§2) The flats were placed into a greenhouse and watered overhead by sprinkling. The greenhouse environmental systems provided the plants with natural and artificial (via metal halide lamps) lighting to attain 14 hours of light per day. Day and night temperatures were maintained at 29° and 21° C. respectively. The plants were grown for 10 to 12 days (or to the appropriate growth stage) prior to compound application. Grasses were sprayed at a 3 to 4 leaf stage and broadleaves at a 1 to 2 leaf stage. Yellow nutsedge was 5 to 7 cm tall at application.
(§3) Solutions of the test compounds were prepared by weighing out 18.8 and 74.7 mg for 1 and 4 kg/ha applications respectively, of the test compound into a 60 ml wide-mouth bottle, then dissolving the compound in 14.0 ml of deionized water containing 0.5% v/v Tween 20' (polyoxyethylene sorbitan monolaurate emulsifier) as a surfactant. Additional solvents, not exceeding 2 ml (15% of spray volume), were used if needed to dissolve the compound.
(§4) The plants were sprayed inside an enclosed linear spray table with the nozzle set at 30.5 cm (12 inches) above the foliage.
(§5) Treated plants were then returned to a greenhouse and watered daily without wetting the foliage.
(§6) The degree of weed control was evaluated 17-21 days after application and recorded as percentage of control as compared to the growth of the same species in an untreated control flat of the same. Percent control is the total injury to the plants due to all factors including: inhibited emergence, stunting, malformation, chlorosis and other types of plant injury. The control ratings range from 0 to 100 percent, where 0% represents no effect with growth equal to the untreated control and where 100% represents complete kill.

In experiment [2] the test system is farnesyl pyrophosphate synthase in daffodil chromoplasts. The experiment in a line: inhibition of farnesyl pyrophosphate synthase in daffodil chromoplasts (14C-isopentenyl pyrophosphate incorporation). Format: biochemical, Narcissus pseudonarcissus. As to conditions: unit inferred, IC50 values in nM, read-out: IC50. Here is the method: The IC50 value may be determined as follows. Daffodil chromoplasts are diluted to a volume of 500 microliters in a buffer containing 0.5M sucrose, 3 mM MgCl2, 1 mM ethylenediaminetetraacetic acid, 20 mM N-tris[hydroxymethyl]methyl-2-aminoethanesulfonic acid, […] N-[2-hydroxyethyl]-piperazine-N'-[2-ethanesulfonic acid], 5 mM L-cysteine, 10 mM sodium fluoride, and 0.1% bovine serum albumin at pH 7.7. The inhibitor to be tested may be dissolved in water other suitable solvent and then added to the reaction mixture. The assay is started by the addition of ^14 C-labeled isopentenyl pyrophosphate (52 Ci/mol) to give a final concentration in the assay of about 3 micromolar. The mixture is incubated at 30° C. with gentle agitation for a period of about 30 min. The reaction may be stopped by the addition of 0.5 mL of saturated NaCl and 2 mL of n-butanol saturated with water. After thorough mixing, the turbid suspensions are centrifuged briefly to separate the layers, and 1 mL of the bright yellow upper butanol layer is added to 10 mL of a suitable scintillation fluid which gives a single phase. The butanol soluble radioactivity is then measured in a scintillation counter.
In addition, the problem of variable quenching differences among different experiments can be essentially eliminated by determining the incorporation of radioactivity relative to controls. Each set of experiments requires two control tubes identical to the test samples except that they contain no inhibitor. One of these is quenched immediately (TO sample) and one is quenched at the end of the normal incubation period (T100 sample).
For each concentration of inhibitor examined the % residual activity is determined from the formula [formula]
Tightly closed daffodil flowers (Narcissus pseudonarcissus) were allowed to open at room temperature. […] Coronae were placed in twice their weight of isolation buffer consisting of 67 mM potassium phosphate, 0.74M sucrose, 5 mM MgCl2, and 0.2% polyvinyl-pyrrolidone at pH 7.6 and were disrupted by 30 seconds of homogenization at high speed in a Waring-type blender. The mixture was filtered through several layers of cheesecloth and 2 layers of 100 micron nylon mesh, and the resulting filtrate was centrifuged at 1000×g for 10 minutes. The pellet was discarded and supernatant was centrifuged at 22,000×g for 20 minutes. […] This solution was centrifuged at 22,000×g for 20 minutes to give orange pellets which were suspended in a buffer of 100 mM tris(hydroxymethyl)aminomethane at pH 7.6 containing 5mM MgCl2 and 2 mM dithiothreitol (1 ml per 10 coronae). This solution was frozen in liquid nitrogen and then stored at -80° C.
Thawed daffodil chromoplasts (100-150 microliters) were diluted to a final volume of 500 microliters in a buffer containing 0.5M sucrose, 3 mM MgCl2, 1 mM ethylenediaminetetraacetic acid, 10 mM N-[2-hydroxyethyl]piperazine-N^1 -[2-ethanesulfonic acid], 5 mM L-cysteine, 10 mM sodium fluoride, and 0.1% bovine serum albumin at pH 7.7. The inhibitor to be tested was dissolved in water or other suitable solvent and was added to the reaction mixture. The assay was started by the addition of ^14 C-labeled isopentenyl pyrophosphate (52 Ci/mol) to give a final concentration in the assay of about 3 micromolar. The mixture was incubated at 30° C. with gentle agitation for a period of about 30 minutes. The reaction was stopped by the addition of 0.5 mL of saturated NaCl and 2 mL of n-butanol saturated with water. After thorough mixing, the turbid suspensions were centrifuged briefly to separate the layers, and 1 mL of the bright yellow upper butanol layer was added to 10 mL of a suitable scintillation fluid which gave a single phase. The butanol soluble radioactivity was then measured in a scintillation counter. Each set of experiments required two control tubes identical to the test samples except that they contain no inhibitor.

The test system of experiment [3] is barnyard grass (Enchinochloa crusgalli) (ECHCG). Nature of the experiment: post-emergent herbicidal test, barnyard grass. Type of experiment: in vivo. Conditions: Echinochloa crus-galli, post-emergence, read-out: ECHCG percent control.
Source text: as §1, §2, §3, §4, §5, §6

The subject of experiment [4] is wild mustard (Brassica kaber), also known as Sinapis arvensis (SINAR). Nature of the experiment: post-emergent herbicidal test, wild mustard. Format: in vivo. Conditions: Brassica, post-emergence, read-out: SINAR percent control.
Source text: as §1, §2, §3, §4, §5, §6

The test system of experiment [5] is velvetleaf (Abutilon theophrasti) (ABUTH). Nature of the experiment: post-emergent herbicidal test, velvetleaf. Type of experiment: in vivo. Conditions: Abutilon theophrasti, post-emergence, read-out: ABUTH percent control.
Source text: as §1, §2, §3, §4, §5, §6

Experiment [6] relates to yellow nutsedge (Cyperus esculentus) (CYPES). Nature of the experiment: post-emergent herbicidal test, yellow nutsedge. Format: in vivo. As to conditions: Cyperus, post-emergence, read-out: CYPES percent control.
Source text: as §1, §2, §3, §4, §5, §6

The subject of experiment [7] is morningglory (Ipomoea spp.) (IPOSS). The experiment in a line: post-emergent herbicidal test, morningglory. Type of experiment: in vivo. Conditions: Ipomoea, post-emergence, read-out: IPOSS percent control.
Source text: as §1, §2, §3, §4, §5, §6

In experiment [8] the test system is green foxtail (Setaria viridis) (SETVI). Nature of the experiment: post-emergent herbicidal test, green foxtail. Conditions: Setaria viridis, post-emergence, read-out: SETVI percent control. Format: in vivo.
Source text: as §1, §2, §3, §4, §5, §6

The mark [9] stands for this setting: post-emergent, 1.0 kg/ha (*), 17-21 days after application.

Structures are written as SMILES. Like-named read-outs stand apart in the source and are kept apart here. A value given as a limit tells only on which side of the number the result lay.

Turning to `CONCC(P(=O)(O)O)P(=O)(O)O` [Compound 15], the pest or weed control at 1000 g/ha in experiment [1], in experiment [3], in experiment [4], in experiment [5], in experiment [6] and in experiment [7] was 0% each time. Besides, the pest or weed control at 1000 g/ha in experiment [8] was 0%. The IC50 in experiment [2] (Table I) and in experiment [2] (Table II) was 6310 nM throughout.
Take `C=CCCNCC(P(=O)(O)O)P(=O)(O)O` [Compound 16]: the pest or weed control at 1000 g/ha in experiment [1] (setting [9]) is 80%; in experiment [3] (setting [9]), 100%; in experiment [4] (setting [9]) it was 100%; in experiment [5] (setting [9]), 10%; in experiment [6] (setting [9]) it was 20%; in experiment [7] (setting [9]), 10%. For the same compound, in experiment [8] (setting [9]), the pest or weed control at 1000 g/ha is 90%. Besides, the IC50 in experiment [2] (Table I) and in experiment [2] (Table II) was 316 nM in each case.
Take `CCCCCCNCC(P(=O)(O)O)P(=O)(O)O` [Compound 17]: the pest or weed control at 1000 g/ha in experiment [1] (setting [9]) came out at 75%; in experiment [3] (setting [9]), 50%; in experiment [4] (setting [9]), 50%; in experiment [5] (setting [9]) it was 0%; in experiment [6] (setting [9]), 0%; in experiment [7] (setting [9]), 10%. In addition, in experiment [8] (setting [9]), the pest or weed control at 1000 g/ha worked out at 60%. For the same compound, the IC50 in experiment [2] (Table I) and in experiment [2] (Table II) was 316 nM each time.
With `C=CCNCC(P(=O)(O)O)P(=O)(O)O` [Compound 18], the pest or weed control at 1000 g/ha in experiment [1] was determined as 100%; in experiment [3] it was 98%; in experiment [4], 100%; in experiment [5], 30%; in experiment [6] it was 50%; in experiment [7], 70%. Also, in experiment [8], the pest or weed control at 1000 g/ha is 98%. Moreover, the IC50 in experiment [2] (Table I) and in experiment [2] (Table II) was 26 nM throughout.
For `CCCN(CCC)CC(P(=O)(O)O)P(=O)(O)O` [Compound 19], the pest or weed control at 1000 g/ha in experiment [1] (setting [9]) was found to be 100%; in experiment [3] (setting [9]), 100%; in experiment [4] (setting [9]) it was 100%; in experiment [5] (setting [9]), 100%; in experiment [6] (setting [9]), 10%; in experiment [7] (setting [9]), 60%. Also, the pest or weed control at 1000 g/ha in experiment [8] (setting [9]) amounted to 98%. Also, the IC50 in experiment [2] (Table I) and in experiment [2] (Table II) was 32 nM in each case.
Turning to `CCNCC(P(=O)(O)O)P(=O)(O)O` [Compound 20], the pest or weed control at 1000 g/ha is 40% in experiment [1]; 60% in experiment [3]; 10% in experiment [4]; 0% in experiment [5]; 15% in experiment [6]; 0% in experiment [7]. In experiment [8], the pest or weed control at 1000 g/ha was 50%. The IC50 in experiment [2] (Table I) and in experiment [2] (Table II) was 150 nM each time.
Take `CC1CCCN(CC(P(=O)(O)O)P(=O)(O)O)C1` (stereo not drawn) [Compound 21]: the pest or weed control at 1000 g/ha in experiment [1] (setting [9]) worked out at 50%; in experiment [3] (setting [9]), 30%; in experiment [4] (setting [9]), 30%; in experiment [5] (setting [9]), 0%; in experiment [6] (setting [9]) it was 5%; in experiment [7] (setting [9]), 10%. Besides, in experiment [8] (setting [9]), the pest or weed control at 1000 g/ha worked out at 50%. Besides, the IC50 in experiment [2] (Table I) and in experiment [2] (Table II) was 385 nM throughout.
Take `CCOCCNCC(P(=O)(O)O)P(=O)(O)O` [Compound 22]: the pest or weed control at 1000 g/ha in experiment [1] (setting [9]) stood at 0%; in experiment [3] (setting [9]) it was 15%; in experiment [4] (setting [9]) it was 40%; in experiment [5] (setting [9]), 5%; in experiment [6] (setting [9]) it was 0%; in experiment [7] (setting [9]), 5%. In experiment [8] (setting [9]), the pest or weed control at 1000 g/ha was 20%. The IC50 (usually the midpoint of a concentration-inhibition curve) in experiment [2] (Table I) was determined as 1160 nM; in experiment [2] (Table II), 1660 nM.
Consider `CNCC(O)(P(=O)(O)O)P(=O)(O)O` [Compound 23], for which the pest or weed control at 4000 g/ha in experiment [1], in experiment [3], in experiment [4], in experiment [5], in experiment [6] and in experiment [7] was 0% throughout. The pest or weed control at 4000 g/ha in experiment [8] stood at 0%. The IC50 in experiment [2] (Table I) is 500000 nM; in experiment [2] (Table II) it was above 500000 nM.
